One experiment has as its system K562. The experiment is described as follows: Cytotoxicity against human K562 cells by disk diffusion soft agar colony formation assay. The experiment is classed as functional, cell-based. On the technique in general: Agar diffusion results depend on both activity and mobility in agar.
The next experiment concerns SW 1116. The experiment is described as follows: Cytotoxicity against human SW1116 cells by disk diffusion soft agar colony formation assay. The experiment is classed as functional, cell-based.

The structures appear in SMILES notation.

As for `CC1=C[C@H]2O[C@@H]3C[C@H]4OC(=O)/C=C\CC[C@@]56OCC/C(=C\C(=O)OC[C@@]2(CC1)[C@]4(C)[C@]31CO1)[C@H]5OC(=O)[C@@H]6O`, the figures for the IC50 with K562 (k562) and in the experiment on SW 1116 (sw 1116) were 0.056 µM and 0.2 µM, respectively.
For the compound `C[C@]12[C@H]3C[C@H]4O[C@@H]5[C@H](C[C@]41O)[C@@](C)(O)CC[C@@]52COC(=O)/C=C1\CCO[C@@]2(CC/C=C\C(=O)O3)[C@H](O)C(=O)O[C@H]12`, the IC50 (commonly the concentration at which inhibition is half-maximal) with K562 (Homo sapiens, K562) stood at 16 µM; in the experiment on SW 1116 (Homo sapiens, SW 1116), 11.6 µM.
For `O=c1[nH]cc(F)c(=O)[nH]1` [FLUOROURACIL], the concentration for half-maximal inhibition (IC50) in the experiment with K562 (Homo sapiens, K562) was found to be 32.9 µM; in the experiment with SW 1116 (Homo sapiens, SW 1116), 76.9 µM.
Take `CC1=C[C@H]2O[C@@H]3C[C@H]4OC(=O)/C=C\C=C\[C@@H]([C@@H](C)O)OCC/C(C)=C/C(=O)OC[C@@]2(CC1)[C@]4(C)[C@]31CO1`: the IC50 in the experiment on K562 (k562) amounted to 0.001 µM; with SW 1116 (sw 1116), 0.033 µM.
Consider `C[C@]12[C@H]3C[C@H]4O[C@@H]5[C@H](C[C@]41O)[C@@](C)(O)CC[C@@]52COC(=O)/C=C1\CCO[C@]2(CC/C=C\C(=O)O3)[C@@H]1OC(=O)[C@@H]2O`, for which the IC50 with K562 (Homo sapiens, K562) was 16 µM; in the experiment on SW 1116 (Homo sapiens, SW 1116), 21.1 µM.
`CC1=C[C@H]2O[C@@H]3C[C@H]4OC(=O)/C=C\CC[C@@]56OCC/C(=C\C(=O)OC[C@@]2(CC1)[C@]4(C)[C@]31CO1)[C@H]5O[C@@H](O)[C@@H]6O`: the IC50 was found to be 0.0011 µM in the experiment on K562 (k562) and 0.0015 µM in the experiment with SW 1116 (sw 1116).
For `CC(=O)[C@@]12CC/C=C\C(=O)O[C@@H]3C[C@H]4O[C@@H]5C=C(C)CC[C@]5(COC(=O)/C=C(\CCO1)[C@H]2O)[C@]3(C)[C@]41CO1` the same measures were 0.0013 µM and 0.0015 µM.
On to `C/C1=C\C(=O)OC[C@]23CCC(CO)=C[C@H]2O[C@@H]2C[C@@H](OC(=O)/C=C\C=C\[C@H]([C@@H](C)O)OCC1)[C@@]3(C)[C@]21CO1`, for which the IC50 with K562 (k562) is 7.13 µM; with SW 1116 (sw 1116) it was 9.06 µM.
For the compound `CC(=O)O[C@@H]1/C2=C/C(=O)OC[C@@]34CC[C@](C)(O)[C@H]5C[C@]6(O)[C@@H](C[C@@H](OC(=O)/C=C\CC[C@]1(C(C)=O)OCC2)[C@]36C)O[C@H]54`, the IC50 with K562 (Homo sapiens, K562) stood at 1.53 µM; with SW 1116 (Homo sapiens, SW 1116) it was 4.25 µM.
For `CC(=O)[C@@]12CC/C=C\C(=O)O[C@@H]3C[C@H]4O[C@@H]5[C@@H]6C[C@@]4(O)[C@@]3(C)[C@]5(CC[C@]6(C)O)COC(=O)/C=C(\CCO1)[C@@H]2O` the same measures were 0.97 µM and 10.6 µM.
As for `CC1=C[C@H]2O[C@@H]3C[C@H]4OC(=O)/C=C\C=C\[C@H]([C@@H](C)O)OCC/C(C)=C/C(=O)OC[C@@]2(CC1)[C@]4(C)[C@]31CO1` [RORIDIN E], the figures for the IC50 with K562 (k562) and in the experiment with SW 1116 (sw 1116) were 0.54 µM and 0.039 µM, respectively.
For `C[C@@H]1CCOC(=O)/C=C/C=C\C(=O)O[C@@H]2C[C@H]3O[C@@H]4C=C(CO)CC[C@]4(COC(=O)[C@H]1O)[C@]2(C)[C@]31CO1` [16-HYDROXY VERRUCARIN A] the same measures were 0.0017 µM and 0.012 µM.
As to `C[C@]12[C@H]3C[C@H]4O[C@@H]5[C@H](C[C@]41O)[C@@](C)(O)CC[C@@]52COC(=O)/C=C1\CCO[C@]2(CC/C=C\C(=O)O3)[C@@H]1O[C@H](O)[C@H]2O`, the IC50 in the experiment with K562 (Homo sapiens, K562) worked out at 8.2 µM; with SW 1116 (Homo sapiens, SW 1116) it was 0.57 µM.
As to `CC(=O)[C@@]12CC/C=C\C(=O)O[C@@H]3C[C@H]4O[C@@H]5[C@@H]6C[C@@]4(O)[C@@]3(C)[C@]5(CC[C@]6(C)O)COC(=O)/C=C(\CCO1)[C@H]2O`, the IC50 in the experiment with K562 (Homo sapiens, K562) is 31.6 µM; in the experiment with SW 1116 (Homo sapiens, SW 1116), 22.7 µM.
Consider `CC(=O)[C@@]12CC/C=C\C(=O)O[C@@H]3C[C@H]4O[C@@H]5C=C(CO)CC[C@]5(COC(=O)/C=C(\CCO1)[C@H]2O)[C@]3(C)[C@]41CO1`, for which the IC50 with K562 (k562) came out at 2.87 µM; in the experiment on SW 1116 (sw 1116), 0.18 µM.
For `CC1=C[C@H]2O[C@@H]3C[C@H]4OC(=O)/C=C\CC[C@]5(C(=O)CO)OCC/C(=C\C(=O)OC[C@@]2(CC1)[C@]4(C)[C@]31CO1)[C@H]5O` the same measures were 0.92 µM and 0.55 µM.
For `CC1=C[C@H]2O[C@@H]3C[C@H]4OC(=O)/C=C\C=C\[C@H]([C@@H](C)O)OCC[C@@H](C)[C@H](O)C(=O)OC[C@@]2(CC1)[C@]4(C)[C@]31CO1` [RORIDIN A] the same measures were 0.0071 µM and 0.21 µM.
Consider `CC1=C[C@H]2O[C@@H]3C[C@H]4OC(=O)/C=C\C=C\C(=O)OCC[C@@H](C)[C@H](O)C(=O)OC[C@@]2(CC1)[C@]4(C)[C@]31CO1` [VERRUCARIN A], for which the IC50 was 0.003 µM with K562 (k562) and 0.0018 µM in the experiment with SW 1116 (sw 1116).
Regarding `CC1=C[C@H]2O[C@@H]3C[C@H]4OC(=O)/C=C\C=C\[C@H]([C@@H](C)O)OCC/C(CO)=C/C(=O)OC[C@@]2(CC1)[C@]4(C)[C@]31CO1`, the IC50 in the experiment with K562 (k562) worked out at 3.15 µM; with SW 1116 (sw 1116), 7.92 µM.
For `CC1=C[C@H]2O[C@@H]3C[C@@H](OC(=O)/C=C\C=C\C(OCCC4=CC(=O)OC4)[C@@H](C)O)[C@](C)([C@@]2(COC(=O)/C=C(\C)CCO)CC1)[C@]31CO1` (stereo partly specified) the same measures were 0.0012 µM and 0.0031 µM.
For `C/C1=C\C(=O)OC[C@]23CCC(CO)=C[C@H]2O[C@@H]2C[C@@H](OC(=O)/C=C\C=C\C(=O)OCC1)[C@@]3(C)[C@]21CO1` the same measures were 0.0064 µM and 0.16 µM.
Taken in the same sequence, the figures for `CC1=C[C@H]2O[C@@H]3C[C@H]4OC(=O)/C=C\CC[C@@]5([C@H](C)O)OCC/C(=C\C(=O)OC[C@@]2(CC1)[C@]4(C)[C@]31CO1)[C@@H]5O` were 0.51 µM and 2.27 µM.
Regarding `C[C@]12[C@H]3C[C@H]4O[C@@H]5[C@H](C[C@]41O)[C@@](C)(O)CC[C@@]52COC(=O)/C=C1\CCO[C@@](C(=O)CO)(CC/C=C\C(=O)O3)[C@@H]1O`, the IC50 in the experiment with K562 (Homo sapiens, K562) came to 26.7 µM; in the experiment with SW 1116 (Homo sapiens, SW 1116) it was 23.1 µM.

The values are drawn from ChEMBL document CHEMBL4392866, “Cytotoxic Trichothecene Macrolides Produced by the Endophytic Myrothecium roridum” (J Nat Prod, 2019).
